# Assay results taken from BindingDB's records for patent US20260042754 (Nodus Oncology, 2026).
# Target: Poly(ADP-ribose) glycohydrolase (Homo sapiens, UniProt Q86W56)
# Assay: PARG Enzymatic Assay
# Experimental: Inhibition of PARG enzymatic activity by compounds was determined as follows: Recombinant His-tagged human PARG protein expressed in Sf21 insect cells (Adipogen AG, #40T-0022) was aliquoted and stored at −80° C. until use. The artificial enzyme substrate 4-(trifluoromethyl)umbelliferone (TFMU)-ADPr was prepared essentially as described (Drown B S et al, Cell Chemical Biology 2018) and stored at −20° C. as 10 mM stock solutions in DMSO (dimethyl sulfoxide) until use. For reactions, typical final concentration of the enzyme was 1 nM and of the TFMU-ADPr 200 μM. Reactions were carried out in black 384-well low volume round bottom assay plates (Corning, #4514) in a final volume of 10 μL. To this end, PARG was diluted to 1.67 nM in reaction buffer (50 mM K2HPO4, 50 mM KCl, 10 mM β-mercaptoethanol, pH 7.4) and 6 μL were dispensed per assay well using a multichannel pipette. […] Fluorescence intensity signals were then measured after 30 minutes on an EnVision microplate reader (PerkinElmer) using 380/10 nm and 535/25 nm filters for the excitation and emission, respectively (gain: 150). […]
# Sequence of Poly(ADP-ribose) glycohydrolase (Q86W56 whole entry): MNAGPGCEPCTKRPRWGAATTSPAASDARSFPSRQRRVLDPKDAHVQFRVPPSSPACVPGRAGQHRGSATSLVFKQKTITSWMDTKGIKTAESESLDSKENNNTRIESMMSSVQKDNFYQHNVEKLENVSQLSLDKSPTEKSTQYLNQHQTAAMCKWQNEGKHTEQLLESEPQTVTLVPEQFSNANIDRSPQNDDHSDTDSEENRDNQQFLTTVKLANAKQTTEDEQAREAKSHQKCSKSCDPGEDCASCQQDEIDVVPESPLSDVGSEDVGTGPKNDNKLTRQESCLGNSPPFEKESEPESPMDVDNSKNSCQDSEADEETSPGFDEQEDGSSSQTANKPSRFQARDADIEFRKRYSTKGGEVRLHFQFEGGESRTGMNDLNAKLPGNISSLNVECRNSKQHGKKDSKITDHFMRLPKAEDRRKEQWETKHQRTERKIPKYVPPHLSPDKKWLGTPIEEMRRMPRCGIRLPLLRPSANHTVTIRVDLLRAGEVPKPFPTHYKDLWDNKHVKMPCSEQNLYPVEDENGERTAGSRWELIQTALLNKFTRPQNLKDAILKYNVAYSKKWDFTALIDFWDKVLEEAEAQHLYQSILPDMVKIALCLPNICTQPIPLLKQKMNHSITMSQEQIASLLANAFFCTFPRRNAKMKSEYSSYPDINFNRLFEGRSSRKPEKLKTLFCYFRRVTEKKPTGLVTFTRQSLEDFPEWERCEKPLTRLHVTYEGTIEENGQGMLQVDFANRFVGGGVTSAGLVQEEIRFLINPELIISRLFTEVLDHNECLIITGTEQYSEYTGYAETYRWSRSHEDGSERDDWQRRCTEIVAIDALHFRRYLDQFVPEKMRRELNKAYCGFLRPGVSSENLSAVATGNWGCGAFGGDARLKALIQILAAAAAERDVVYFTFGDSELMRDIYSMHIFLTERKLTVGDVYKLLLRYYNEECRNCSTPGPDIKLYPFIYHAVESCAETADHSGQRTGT
compound,measurement,value
"CO/N=c1\[nH]c2c(N3CCN(C(=O)C4(C(F)(F)F)CC4)[C@H](C)C3)cc(S(=O)(=O)NC3(C)CC3)cc2c(=O)n1Cc1cnn(C)c1 [US20260042754, Example 32]",IC50,< 30 nM
